Assay results published in US20250228862A1, “METHODS OF USING ATR INHIBITORS” (Repare Therapeutics Inc., priority 2022, published 2025).

Experiments:
[1] = tested on: ARID1A wild-type (WT) and knockout (ARID1A−/−) HCT116 cells; test: IncuCyte growth (confluency), isogenic ARID1A WT and -/- HCT116; format: cell-based, human; settings: HCT116 ARID1A−/− vs WT
Description: FIG. 11A: Dose-response curves of isogenic ARID1A wild-type (WT) and knockout (ARID1A−/−) HCT116 cells treated with AZD-6738. Cell growth (confluency) was measured by IncuCyte automated microscopy. Data (circles) were fitted to a four-parameter dose-response model (solid lines).
(§1) In addition to the genes disclosed herein, we investigated ATRi sensitivity to the loss of ARID1A, which was previously described in Williamson et al., Nat. Comms., 7:13837, 2016, as a bona fide biomarker of ATRi sensitivity. Three isogenic ARID1A wild-type (WT) and ARID1A-deficient (ARID1A−/−) human cell line pairs were employed: HCT116, MCF10A and BEAS2B. […] To strengthen this observation, we assembled a panel of tissue-matched cancer cell lines that were either ARID1A WT or carried deleterious ARID1A alterations (LOF) and measured their sensitivity to AZD-6738. […] In aggregate, we believe that the genes named in this Application present a list of bona fide determinants of ATRi sensitivity as opposed to certain 5 biomarkers described in the scientific literature.

[2] = tested on: ARID1A wild-type (WT) and knockout (ARID1A−/−) BEAS2B cells; test: IncuCyte growth (confluency), isogenic ARID1A WT and -/- BEAS2B; format: cell-based, human; settings: BEAS2B ARID1A−/− vs WT
Description: FIG. 11C: Dose-response curves of isogenic ARID1A wild-type (WT) and knockout (ARID1A−/−) BEAS2B cells treated with AZD-6738. Cell growth (confluency) was measured by IncuCyte automated microscopy. Data (circles) were fitted to a four-parameter dose-response model (solid lines).
as §1

[3] = tested on: ARID1A wild-type (WT) and knockout (ARID1A−/−) MCF1A cells; test: IncuCyte growth (confluency), isogenic ARID1A WT and -/- MCF10A; format: cell-based, human; settings: MCF10A ARID1A−/− vs WT
Description: FIG. 11B: Dose-response curves of isogenic ARID1A wild-type (WT) and knockout (ARID1A−/−) MCF1A cells treated with AZD-6738. Cell growth (confluency) was measured by IncuCyte automated microscopy. Data (circles) were fitted to a four-parameter dose-response model (solid lines).
as §1

[4] = tested on: cancer cell lines either wild-type for ARID1A (WT) or carrying deleterious ARID1A alterations (LOF); test: IncuCyte growth assays in ARID1A WT and LOF cancer cell line panel; format: cell-based; settings: tissue-matched cancer cell line panel
Source text: FIG. 12: EC50 values for the ATRI AZD-6738 from IncuCyte growth assays in a panel of cancer cell lines either wild-type for ARID1A (WT) or carrying deleterious ARID1A alterations (LOF). Data (circles) from two independent experiments with mean (bars)±SD (error bars).
as §1

C[C@@H]1COCCN1c1cc(C2([S@](C)(=N)=O)CC2)nc(-c2cc[nH]c3nccc2-3)n1 [AZD-6738]
Sensitivity upon ARID1A deficiency [1]: did not lead to sensitivity
Sensitivity upon ARID1A deficiency [2]: did not lead to sensitivity
Sensitivity upon ARID1A deficiency [3]: did not lead to sensitivity
Sensitivity (EC50) of ARID1A LOF vs ARID1A WT cell lines [4]: no significant trend towards higher ATRi sensitivity in ARID1A LOF cell lines
